Source: US8470970B2, “Mammalian sweet and amino acid heterodimeric taste receptors comprising T1R3 and T1R1” (The Regents of the University of California, priority 2001, dated 2013)

Columns and labels:
mouse T1R1+3 = target: T1, mouse T1R1+3 (Mus musculus, UniProt Q925D8+Q99PG6); assay: Calcium imaging of HEK-293 cells co-expressing promiscuous G proteins and mouse T1R1+3; assay type: cell-based; settings: for activation of T1R1+3: amino acids 50 mM; for shift of T1R1+3 dose response in the presence of IMP: 2.5 mM IMP
T1 construct: expressed in transfected cells; host or cells: HEK-293 (PEAKrapid) cells co-expressing promiscuous G proteins
T1 sequence (Q99PG6 20-842 L120P/N244D/D281A/N309Y/P311T/S314P/H418Y): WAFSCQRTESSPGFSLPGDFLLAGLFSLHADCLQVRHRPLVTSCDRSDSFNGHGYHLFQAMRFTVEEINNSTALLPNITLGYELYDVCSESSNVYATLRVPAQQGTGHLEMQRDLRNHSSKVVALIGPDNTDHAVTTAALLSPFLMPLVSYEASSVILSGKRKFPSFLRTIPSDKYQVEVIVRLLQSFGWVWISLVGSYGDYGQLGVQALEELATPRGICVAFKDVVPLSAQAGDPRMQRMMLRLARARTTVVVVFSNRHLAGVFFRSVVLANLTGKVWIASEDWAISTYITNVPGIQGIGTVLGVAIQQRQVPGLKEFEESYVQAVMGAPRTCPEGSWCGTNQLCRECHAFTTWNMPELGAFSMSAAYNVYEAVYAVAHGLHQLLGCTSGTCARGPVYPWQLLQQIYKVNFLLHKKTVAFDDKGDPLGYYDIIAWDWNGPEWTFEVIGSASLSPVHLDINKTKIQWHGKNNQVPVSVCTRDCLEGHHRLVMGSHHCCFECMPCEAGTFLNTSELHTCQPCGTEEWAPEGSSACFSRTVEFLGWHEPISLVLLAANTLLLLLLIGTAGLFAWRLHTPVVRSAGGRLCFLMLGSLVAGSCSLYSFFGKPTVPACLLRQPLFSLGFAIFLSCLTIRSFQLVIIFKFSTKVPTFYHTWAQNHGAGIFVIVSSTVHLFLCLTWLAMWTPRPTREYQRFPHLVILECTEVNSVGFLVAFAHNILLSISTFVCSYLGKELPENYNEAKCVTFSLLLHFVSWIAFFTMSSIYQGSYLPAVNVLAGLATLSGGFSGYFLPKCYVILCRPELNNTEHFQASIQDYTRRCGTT
T1 sequence (Q925D8 21-858): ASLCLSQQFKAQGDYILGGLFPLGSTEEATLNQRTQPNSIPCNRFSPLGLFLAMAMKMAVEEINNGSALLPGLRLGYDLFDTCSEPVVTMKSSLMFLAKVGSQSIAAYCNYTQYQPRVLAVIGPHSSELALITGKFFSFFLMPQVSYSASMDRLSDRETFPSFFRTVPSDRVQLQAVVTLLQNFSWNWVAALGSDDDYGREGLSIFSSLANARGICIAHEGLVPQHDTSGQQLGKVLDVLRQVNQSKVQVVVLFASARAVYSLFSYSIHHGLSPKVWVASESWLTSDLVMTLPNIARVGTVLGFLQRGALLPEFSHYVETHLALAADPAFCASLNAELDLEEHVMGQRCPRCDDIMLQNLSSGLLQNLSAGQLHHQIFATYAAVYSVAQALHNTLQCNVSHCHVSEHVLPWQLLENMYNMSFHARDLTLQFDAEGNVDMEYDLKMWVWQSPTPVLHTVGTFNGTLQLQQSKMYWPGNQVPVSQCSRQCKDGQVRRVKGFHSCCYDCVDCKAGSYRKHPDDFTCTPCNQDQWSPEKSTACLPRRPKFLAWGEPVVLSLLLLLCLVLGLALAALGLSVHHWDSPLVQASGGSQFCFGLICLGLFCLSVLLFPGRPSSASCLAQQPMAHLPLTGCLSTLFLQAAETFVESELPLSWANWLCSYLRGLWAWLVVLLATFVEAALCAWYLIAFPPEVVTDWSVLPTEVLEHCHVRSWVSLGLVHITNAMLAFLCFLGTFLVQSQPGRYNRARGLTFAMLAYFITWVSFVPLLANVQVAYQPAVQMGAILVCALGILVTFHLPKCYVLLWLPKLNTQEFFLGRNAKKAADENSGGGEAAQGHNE
Method: (a): HEK-293 cells co-expressing promiscuous G proteins and heteromeric mouse T1R2+3 or T1R1+3 receptors were stimulated with L- and D-amino acids. […] (b)(c): Quantification of amino-acid responses for T1R2+3(b) and T1R1+3(c). […] Each column represents the mean±s.e.m. of at least ten independent determinations. […] All calcium measurements and quantifications were performed as described in the Methods and Nelson et al., Cell 106:381-390 (2001).
Mouse T1R1 and T1R3 were transfected alone or in combination and tested for stimulation by L-amino acids.
(§1) Cells were grown, maintained and transfected exactly as described earlier (Nelson et al., Cell, 106:381-390 (2001)). […] FURA-2 acetomethyl ester was used to measure intracellular calcium concentration ([Ca^2+]i), and assay conditions were identical to those previously described (Nelson et al., Cell, 106:381-390 (2001)). Responses were measured for 60 s and the fluorescence ratio at wavelengths of 340 and 380 nm (F340/F380) was used to measure [Ca^2+]i. For data analysis, response refers to the number of cells responding in a field of about 300 transfected cells. Cells were counted as responders if F340/F380 increased above 0.27 after addition of tastant. […] Dose-response functions were fitted using the logistical equation. Studies involving taster and non-taster alleles of T1R3 used constructs of complementary DNA coding for T1R3 from C57BL/6 and 129/Sv mice, respectively (Nelson et al., Cell, 106:381-390 (2001); Kitagawa et al., Biochem. Biophys. Res. Cummun., 283:236-242 (2001); Montmayeur et al., Nature Neurosci., 4:492-498 (2001); Max et al., Nature Genet., 28:58-63 (2001); Sainz et al., J. Neurochem., 77:896-903 (2001); Bachmanov et al., Chem. Senses, 26:925-933 (2001)).

[1] = Behavioral thresholds for detection of sweet tastants in vivo
[2] = target: T2, receptors containing human T1R1 (UniProt Q7RTX1+Q925D8)
T2 sequence (Q7RTX1 21-841): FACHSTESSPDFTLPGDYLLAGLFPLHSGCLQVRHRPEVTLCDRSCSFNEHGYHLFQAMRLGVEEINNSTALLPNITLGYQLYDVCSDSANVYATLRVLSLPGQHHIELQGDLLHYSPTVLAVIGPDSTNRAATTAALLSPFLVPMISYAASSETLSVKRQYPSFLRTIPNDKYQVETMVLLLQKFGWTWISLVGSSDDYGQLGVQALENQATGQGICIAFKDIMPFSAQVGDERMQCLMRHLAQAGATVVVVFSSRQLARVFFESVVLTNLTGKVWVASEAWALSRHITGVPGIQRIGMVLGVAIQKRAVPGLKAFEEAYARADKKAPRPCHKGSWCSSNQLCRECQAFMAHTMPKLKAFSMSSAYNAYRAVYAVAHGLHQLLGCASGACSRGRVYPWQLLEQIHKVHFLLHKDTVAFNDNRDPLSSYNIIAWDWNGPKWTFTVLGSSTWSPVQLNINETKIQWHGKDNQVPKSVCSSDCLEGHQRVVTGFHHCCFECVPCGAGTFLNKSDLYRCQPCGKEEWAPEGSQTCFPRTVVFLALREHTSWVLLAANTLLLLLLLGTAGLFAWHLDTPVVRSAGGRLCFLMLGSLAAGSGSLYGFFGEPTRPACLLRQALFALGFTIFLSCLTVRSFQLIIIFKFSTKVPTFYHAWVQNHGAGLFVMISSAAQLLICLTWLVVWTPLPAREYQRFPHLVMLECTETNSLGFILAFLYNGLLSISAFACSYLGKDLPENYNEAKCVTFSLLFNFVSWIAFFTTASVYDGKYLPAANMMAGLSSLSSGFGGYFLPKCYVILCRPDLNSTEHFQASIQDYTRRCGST
T2 sequence (Q925D8 21-858): T1 sequence (Q925D8 21-858)
Method: as §1

NC(CCP(=O)(O)O)C(=O)O [L-AP4]
potentiation of T1R1+3 response to the tastant by purine nucleotides (mouse T1R1+3): greatly potentiated

NCC(=O)O [Gly, glycine]
activation of T1R1+3 (mouse T1R1+3): activates
activation of T1R1+3 (mouse T1R1+3; listed as glycine): activating

O=C1NS(=O)(=O)c2ccccc21 [saccharin]
in vivo threshold [1]: ~0.5 mM

OC[C@H]1O[C@@](CO)(O[C@H]2O[C@H](CO)[C@@H](O)[C@H](O)[C@H]2O)[C@@H](O)[C@@H]1O [sucrose]
in vivo threshold [1]: ~20 mM

N[C@@H](CO)C(=O)O [Ser, serine]
shift of T1R1+3 dose response in the presence of IMP (mouse T1R1+3): at least one order of magnitude to the left
activation of T1R1+3 (mouse T1R1+3): activating

C[C@@H](O)[C@H](N)C(=O)O [threonine]
activation of T1R1+3 (mouse T1R1+3): activating

N[C@@H](CCC(=O)O)C(=O)[O-].[Na+] [MSG, monosodium L-glutamate]
potentiation of T1R1+3 response to the tastant by purine nucleotides (mouse T1R1+3): greatly potentiated
activation of receptors containing human T1R1 ([2]; low concentration, FIG. 11c): robustly activates

NC(=O)CC[C@H](N)C(=O)O [glutamine]
activation of T1R1+3 (mouse T1R1+3): activating

N[C@@H](CCC(=O)O)C(=O)O [Glu, glutamate]
shift of T1R1+3 dose response in the presence of IMP (mouse T1R1+3): at least one order of magnitude to the left
sensitivity of cells expressing human T1R1 relative to other amino acids [2]: more than an order of magnitude more sensitive

CC1=CC(=O)[N-]S(=O)(=O)O1.[K+] [acesulfame-K]
in vivo threshold [1]: ~0.5 mM

C[C@H](N)C(=O)O [Ala, alanine]
shift of T1R1+3 dose response in the presence of IMP (mouse T1R1+3): at least one order of magnitude to the left
activation of T1R1+3 (mouse T1R1+3): activating

N[C@@H](Cc1c[nH]c2ccccc12)C(=O)O [Trp]
activation of T1R1+3 (mouse T1R1+3): no responses

C[C@@H](N)C(=O)O [D-Ala]
activation of T1R1+3 by D-amino acid in the presence of IMP (mouse T1R1+3; amino acid 50 mM, IMP 2.5 mM): exception
